The results in this text go back to patent US20170037078A1, “2' -DIS[…] FOR TREATMENT OF THE FL[…] OF VIRUSES AND CANCER” (Cocrystal Pharma, Inc., priority 2014, published 2017).

Structures are written as SMILES. “Also recorded” adds a separate entry of the source. Like-named read-outs stand apart in the source and are kept apart here.

In series [1] the test system is HCV GT 1b replicon (Huh-7 cells). As to the kind of experiment: HCV Replicon Assay. The series is classed as cell-based. As to the method:
(§1) Huh 7 Clone B cells containing HCV Replicon RNA were seeded in a 96-well plate at 5000 cells/well, and the compounds tested at 10 μM in triplicate immediately after seeding. Following five days incubation (37° C., 5% CO2), total cellular RNA was isolated by using versaGene RNA purification kit from Gentra. Replicon RNA and an internal control (TaqMan rRNA control reagents, Applied Biosystems) were amplified in a single step multiplex Real Time RT-PCR Assay. The antiviral effectiveness of the compounds was calculated by subtracting the threshold RT-PCR cycle of the test compound from the threshold RT-PCR cycle of the no-drug control (ΔCt HCV). A ΔCt of 3.3 equals a 1-log reduction (equal to 90% less starting material) in Replicon RNA levels. The cytotoxicity of the compounds was also calculated by using the ΔCt rRNA values. 2′-C-Me-C was used as the positive control. To determine EC90 and IC50 values^2, ΔCt: values were first converted into fraction of starting material^3 and then were used to calculate the % inhibition.

Series [2] deals with Huh-7 cells. The series is described as follows: Cytotoxicity in HCV replicon assay (ΔCt rRNA). The series is classed as cell-based. Particulars: HCV GT 1b replicon, Huh-7 cells. The method, then:
as §1

Series [3] relates to HepG2 cells. As to the kind of experiment: Mitochondrial toxicity assay: mitochondrial and nuclear DNA levels in HepG2 cells. The series is classed as cell-based. Particulars: 14-day assay. As to the method: This assay was used in all studies described in this application that determine the effect of compounds on mitochondrial DNA content. In this assay, low-passage-number HepG2 cells were seeded at 5,000 cells/well in collagen-coated 96-well plates. Test compounds were added to the medium to obtain final concentrations of 0 μM, 0.1 μM, 10 μM and 100 μM. […] The mitochondrial cytochrome c oxidase subunit II (COXII) gene and the β-actin or rRNA gene were amplified from 5 μl of the eluted nucleic acids using a multiplex Q-PCR protocol with suitable primers and probes for both target and reference amplifications. […] For exon 3 of the […] gene (GenBank accession number E01094) the sense, probe, and antisense primers are 5′-[…]-3′, 5′-6-[…]-3′ and 5′-[…]-3′, respectively. The primers and probes for the rRNA gene are commercially available from Applied Biosystems. […] The arithmetic formula for this approach is given by 2-ΔΔCT, where ΔΔCT is (CT for average target test sample−CT for target control)−(CT for average reference test−CT for reference control) (see Johnson M R, K Wang, J B Smith, M J Heslin, R B Diasio. Quantitation of dihydropyrimidine dehydrogenase expression by real-time reverse transcription polymerase chain reaction. Anal. Biochem. 2000; 278:175-184). A decrease in mitochondrial DNA content in cells grown in the presence of drug indicated mitochondrial toxicity.

For series [4], the system named is CEM (human lymphoblastoid). As to the kind of experiment: Cellular toxicity assay in CEM cells. The series is classed as cell-based. The method, then:
(§2) The toxicity of the compounds was assessed in Vero, human PBM, CEM (human lymphoblastoid), MT-2, and HepG2 cells, as described previously (see Schinazi R. F., Sommadossi J.-P., Saalmann V., Cannon D. L., Xie M.-Y., Hart G. C., Smith G. A. & Hahn E. F. Antimicrob. Agents Chemother. 1990, 34, 1061-67). Cycloheximide was included as positive cytotoxic control, and untreated cells exposed to solvent were included as negative controls. The cytotoxicity IC50 was obtained from the concentration-response curve using the median effective method described previously (see Chou T.-C. & Talalay P. Adv. Enzyme Regul. 1984, 22, 27-55; Belen'kii M. S. & Schinazi R. F. Antiviral Res. 1994, 25, 1-11).

Series [5] deals with Human PBM. As to the kind of experiment: Cellular toxicity assay in human PBM cells. The series is classed as cell-based. Particulars: Human PBM cells. As to the method: as §2
For series [6], the system named is HepG2 cells. As to the kind of experiment: Mitochondrial toxicity assay: lactic acid production in HepG2 cells. It counts as cell-based. Particulars: 14-day assay. As to the method: To measure the effects of the compounds on lactic acid production, HepG2 cells from a stock culture were diluted and plated in 12-well culture plates at 2.5×10^4 cells per well. […] […] The culture medium was then filtered, and the lactic acid content in the medium was determined using a colorimetric lactic acid assay (Sigma-Aldrich). Since lactic acid product can be considered a marker for impaired mitochondrial function, elevated levels of lactic acid production detected in cells grown in the presence of test compounds would indicate a drug-induced cytotoxic effect. • ii) Effect of Compounds on Mitochondrial DNA Synthesis:

Series [7] concerns Vero. As to the kind of experiment: Cellular toxicity assay in Vero cells. The series is classed as cell-based. The method, then:
as §2

For series [8], the system named is Primary human bone marrow mononuclear cells. As to the kind of experiment: Bone Marrow Colony Forming Cell Assay (BFU-E). It counts as cell-based. As to the method:
Primary human bone marrow mononuclear cells were obtained commercially from Cambrex Bioscience (Walkersville, Md.). CFU-GM assays were carried out using a bilayer soft agar in the presence of 50 units/mL human recombinant granulocyte/macrophage colony-stimulating factor, while BFU-E assays used a […] matrix containing 1 unit/mL erythropoietin (see Sommadossi J P, Carlisle R. Toxicity of 3′-azido-3′-deoxythymidine and 9-(1,3-dihydroxy-2-propoxymethyl) guanine for normal human hepatopoietic progenitor cells in vitro. Antimicrob. Agents Chemother. 1987; 31: 452-454; Sommadossi, J P, Schinazi, R F, Chu, C K, and Xie, M Y. Comparison of cytotoxicity of the (−) and (+) enantiomer of 2′,3′-dideoxy-3′-thiacytidine in normal human bone marrow progenitor cells. Biochem. Pharmacol. 1992; 44:1921-1925). Each experiment was performed in duplicate in cells from three different donors. AZT was used as a positive control. […] The 50% inhibitory concentration (IC50) was obtained by least-squares linear regression analysis of the logarithm of drug concentration versus BFU-E survival fractions. Statistical analysis was performed with Student's t test for independent non-paired samples.

Series [9] in a line: Cytotoxicity in HCV replicon assay (ΔCt rRNA). Particulars: human, Huh-7 Clone B cells containing HCV GT 1b replicon RNA; HCV GT 1b replicon Huh-7 cells. The series is classed as cell-based. As to the method: as §1
A short description of series [10]: Cellular toxicity assay in CEM cells. Particulars: human, CEM lymphoblastoid cells, read-out: Cytotoxicity, CC50. The series is classed as cell-based, human. As to the method: as §2
Series [11] can be described thus: Cellular toxicity assay in human PBM cells. It counts as cell-based. Particulars: human, human PBM cells; read-out: Cytotoxicity, CC50. As to the method:
as §2

A short description of series [12]: Cellular toxicity assay in Vero cells. It counts as cell-based. Particulars: African green monkey, read-out: Cytotoxicity, CC50. As to the method:
as §2

In series [1], `O=c1ccn(C2OC(CO)C(O)C2(F)Cl)c(=O)[nH]1` (stereo not drawn) [Compound 10] registered an EC50 of more than 10 µM. In series [1], this molecule gave an EC90 of more than 10 µM. In addition, the CC50 in series [2] was more than 10 µM; in [4] (read-out: Cytotoxicity, CC50), more than 100 µM; in series [5] (read-out: Cytotoxicity, CC50), more than 100 µM; in series [7] (read-out: Cytotoxicity, CC50) it was more than 100 µM. Besides, the “Summary (mitochondrial toxicity)” value in series [3] is “non-toxic; also recorded: not toxic”. Besides, the results for the “% Inhibition MtDNA” value in [3] (10 μM) and in series [3] (50 μM) were less than 1% and <1/<1%, respectively. The “% Inhibition nDNA” value in series [3] (10 μM) is given as 8.76%; in [3] (50 μM), <1/<1%. Also, the entries for the “MtDNA Content (% of control)” value in [3] (10 μM) and in series [3] (50 μM) were 161 (113-230) % of control and 116 (77-175) % of control, respectively. For the same molecule, the 50% inhibitory concentration (IC50) was more than 50 µM in series [3] (read-out: IC50, MtDNA) and more than 50 µM in series [3] (read-out: IC50, nDNA). Moreover, the figures for the “% inhibition at maximum concentration evaluated” value in [4], in [5] and in [7] were −48.1%, −4.1% and −30.7%, respectively. For the same molecule, the “Lactic acid Production (% of control)” value in series [6] (10 μM) is recorded as 84.59 ± 7.30 % of control; in series [6] (50 μM), 122.3 ± 5.80 % of control.
`CC(C)OC(=O)[C@H](C)NP(=O)(OC[C@H]1O[C@@H](n2ccc(=O)[nH]c2=O)C(F)(Cl)[C@H]1O)Oc1ccccc1` (stereo partly drawn) [Compound 12, (2S)-isopropyl-2-(((4-chloro-5-(2,4-dioxo-3,4-dihydropyrimidin-1 (2H)-yl-4-fluoro-3-hydroxytetrahydrofuran-2-yl)methoxy) (phenoxy)phosphoryl)amino)propanoate] returned an EC50 in series [1] (Hepatitis C virus, GT1B) of 0.1 to 1 µM. The molecule further registered an EC90 in series [1] (Hepatitis C virus, GT1B) of 0.1 to 1 µM. The half-inhibitory concentration (IC50) in series [8] (Donor 2) was more than 100 µM; in series [8] (Homo sapiens, Donor 1), more than 100 µM; in series [3] (Homo sapiens, 336 h, read-out: IC50, MtDNA) it was more than 50 µM; in series [3] (Homo sapiens, 336 h, read-out: IC50, nDNA) it was more than 50 µM. This molecule displayed a CC50 at 5 days in series [9] of more than 10 µM. Also, the “Summary (mitochondrial toxicity)” value in series [3] is “non-toxic; also recorded: not toxic”. The figures for the “MtDNA Content (% of control)” value in [3] (10 μM) and in [3] (50 μM) were 129 (117-143) % of control and 84 (68-102) % of control, respectively. Also, the inhibition at 10 µM was less than 1% in series [3] (Homo sapiens, 336 h, 10 μM, read-out: % Inhibition MtDNA) and less than 1% in series [3] (Homo sapiens, 336 h, 10 μM, read-out: % Inhibition nDNA). The inhibition at 50 µM in series [3] (Homo sapiens, 336 h, 50 μM, read-out: % Inhibition MtDNA) was found to be 27%; in series [3] (Homo sapiens, 336 h, 50 μM, read-out: % Inhibition nDNA) it was 12.8%. For the same molecule, the “% inhibition at maximum concentration evaluated” value was −4.8% in series [4], 36.2% in series [5] and 17.4% in series [7]. For the same molecule, the CC50 in series [10], in [11] and in series [12] was more than 100 µM each time. Besides, the “Lactic acid Production (% of control)” value is given as 60.20 ± 1.25 % of control in series [6] (10 μM) and 55.49 ± 0.88 % of control in series [6] (50 μM).
On to `Cc1cn([C@H]2C[C@H](N=[N+]=[N-])[C@@H](CO)O2)c(=O)[nH]c1=O` [AZT, reference compound], for which the IC50 in series [8] (Donor 1) worked out at 0.3 µM; in series [8] (Donor 2), 2.9 µM.
For the molecule `Nc1ccn([C@H]2CC[C@@H](CO)O2)c(=O)n1` [ddC, reference compound], in series [3], the “Summary (mitochondrial toxicity)” value is on record as “toxic”. Further, in [3] (10 μM), the “% Inhibition MtDNA” value worked out at 95.5%, the “% Inhibition nDNA” value turned out to be 52.6% and the “MtDNA Content (% of control)” value is recorded as 9.5 (5.7-16.0) % of control. Further, the half-inhibitory concentration (IC50) in series [3] (read-out: IC50, MtDNA) is less than 10 µM. Besides, the IC50 in [3] (read-out: IC50, nDNA) is not above 10 µM. Further, in [6] (10 μM), the “Lactic acid Production (% of control)” value is 325.93 ± 27.05 % of control.
